# Measured values published in US20100210567A1, “USE OF A TUFTSIN AS A THERAPEUTIC AGENT” (priority 2007, published 2010).
# Residues, ends and D or L forms follow the SMILES beside them.
# Test system: drug-resistant Mycobacterium tuberculosis
# Details: peptide 10 micrograms per ml, seven days
smiles,measurement,value
"C[C@@H](O)[C@H](N)C(=O)N[C@@H](CCCCN)C(=O)N1CCC[C@H]1C(=O)N[C@@H](CCCNC(=N)N)C(=O)O [Tuftsin, Thr-Lys-Pro-Arg-OH] (H-TKPR-OH)",% inhibition,0.0%
